Like-named read-outs stand apart in the source and are kept apart here.
Experiments:
HDAC1 human recombinant = biological target: T1, HDAC1 human recombinant (Homo sapiens, UniProt Q13547); assay: HDAC1 inhibitory activity, fluorometric kit; format: biochemical; settings: Class I
T1 construct: purchased Enzo Life Science BML-AK511

[1] = tested on: HDACs HeLa cells nuclear extract; assay: HDAC inhibitory activity, fluorometric kit, HeLa cell nuclear extract; format: biochemical, human; settings: HeLa cell nuclear extract as HDAC source
[2] = tested on: neonatal rat cardiac fibroblasts (CFs); assay: FBS-induced cardiac fibroblast proliferation assay (Alamar Blue); format: cell-based; settings: 10% FBS-induced CF proliferation, 48 h, read-out: Inhibition percentage of cell proliferation
Protocol: CFs were treated for 48 h with 10% fetal bovine serum (FBS), to induce CFs proliferation in presence/absence of each new CTz derivatives in a concentration range of 1–10 μM. In Table 4, the inhibition percentage of cell proliferation for each concentration of the synthesized compounds are shown. All derivatives inhibited CFs proliferation induce by serum.
Sprague Dawley rats were obtained from the Animal Breeding Facility of the School of Chemical and Pharmaceutical Sciences at the University of Chile. All studies followed the Guide for the Care and Use of Laboratory Animals published by the US National Institutes of Health (NIH Publication 8th, 2011), and experimental protocols were approved by the University of Chile Institutional Ethics Review Committee. CF were isolated from of 2 or 3–day–old Sprague-Dawley rats and cultured as described previously. Briefly, the neonatal rats were decapitated and their hearts were extracted under aseptic environment. Atria were removed and ventricles were cut into small pieces (~1–2 mm) for posterior colagenase II digestion. The digestion yield was separated by 10 min centrifugation at 89×g. The pellet was resuspended in 10 mL of Dulbecco’s Modified Eagle’s Medium/Nutrient F-12 (DMEM-F12) supplemented with 10% FBS and antibiotics (100 μg/mL streptomycin and 100 units/mL penicillin) and cultured in a humid atmosphere of 5% CO2 and 95% O2 at 37°C until confluence (5 days). The purity of the CFs population was assessed through the expression of several markers. CFs had positive staining against vimentin (Santa Cruz Biotechnology), while being negative against sarcomeric actin and desmin (Sigma-Aldrich). Experiments were performed on cells at passage 1. […]
To evaluate cytotoxicity, CFs were seeded in 12 microwell plates at a ratio of 2 × 10^4 cell/cm^2, cultured in DMEM–F12 medium + 10% FBS, which was subsequently replaced by DMEM–F12. After 24 h of serum starvation derivatives were applied at proper times and concentrations in accordance to experimental procedures. Cell viability assays were carried out using Alamar Blue®, a nontoxic, cell permeable non fluorescent compound that is blue in color. Viable cells reduce resazurin to resorufin, which produces very bright red fluorescence which is used as a quantitative cell viability measure. […] The fluorescence of Alamar Blue® was read using microplate reader at 570 excitation and emission to 595 nm. Cell survival was expressed as percentage over the untreated cells. […] Cell proliferation was quantified by Alamar Blue®, according to protocol mentioned before. Cell proliferation was expressed as percentage over the control FBS treated cells.

HDAC6 human recombinant = biological target: T2, HDAC6 human recombinant (Homo sapiens, UniProt Q9UBN7); assay: HDAC6 inhibitory activity, fluorometric kit; format: biochemical; settings: Class II
T2 construct: purchased Enzo Life Science BML-AK516
T2 sequence (Q9UBN7 1-1215): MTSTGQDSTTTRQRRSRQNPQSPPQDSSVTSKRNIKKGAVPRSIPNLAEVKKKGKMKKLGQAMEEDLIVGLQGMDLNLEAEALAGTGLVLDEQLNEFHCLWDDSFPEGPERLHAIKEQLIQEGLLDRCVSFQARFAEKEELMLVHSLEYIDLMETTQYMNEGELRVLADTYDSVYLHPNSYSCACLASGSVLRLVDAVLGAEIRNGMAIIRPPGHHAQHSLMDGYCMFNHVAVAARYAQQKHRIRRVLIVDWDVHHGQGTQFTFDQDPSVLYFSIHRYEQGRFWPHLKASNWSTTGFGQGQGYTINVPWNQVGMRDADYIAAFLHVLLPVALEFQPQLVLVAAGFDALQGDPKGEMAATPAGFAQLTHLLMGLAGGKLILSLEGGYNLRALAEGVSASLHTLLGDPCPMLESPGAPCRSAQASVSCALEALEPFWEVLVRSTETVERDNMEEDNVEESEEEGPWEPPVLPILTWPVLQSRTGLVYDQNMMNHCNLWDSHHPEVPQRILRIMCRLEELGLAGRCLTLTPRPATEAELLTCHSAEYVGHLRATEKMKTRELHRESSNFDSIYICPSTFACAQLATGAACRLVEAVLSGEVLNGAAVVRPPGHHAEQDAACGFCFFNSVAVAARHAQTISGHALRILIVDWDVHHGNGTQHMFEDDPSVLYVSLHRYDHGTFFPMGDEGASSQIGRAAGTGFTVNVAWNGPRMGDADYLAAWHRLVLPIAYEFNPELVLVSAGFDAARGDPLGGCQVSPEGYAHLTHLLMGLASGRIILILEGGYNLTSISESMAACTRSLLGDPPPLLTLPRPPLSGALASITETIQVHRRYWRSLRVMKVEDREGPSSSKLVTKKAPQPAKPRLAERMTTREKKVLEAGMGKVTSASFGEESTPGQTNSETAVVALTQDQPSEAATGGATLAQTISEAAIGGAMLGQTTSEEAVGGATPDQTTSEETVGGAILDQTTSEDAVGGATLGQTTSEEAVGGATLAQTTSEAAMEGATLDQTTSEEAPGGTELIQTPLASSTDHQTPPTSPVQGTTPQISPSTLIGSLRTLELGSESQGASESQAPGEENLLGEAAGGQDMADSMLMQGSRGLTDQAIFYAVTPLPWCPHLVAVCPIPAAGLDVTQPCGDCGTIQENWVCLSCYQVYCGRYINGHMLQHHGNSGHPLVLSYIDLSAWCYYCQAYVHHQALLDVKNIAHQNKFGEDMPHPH

[3] = Cytotoxicity assay (Alamar Blue) in cardiac fibroblasts; format: cell-based, rat; settings: Sprague-Dawley, rat, primary neonatal rat cardiac fibroblasts (CFs), CFs treated for 48 h
Protocol: (§1) CFs were treated for 48 h with all the new CTz derivatives in a broad concentration range (100 μM^−1 mM), and their cytotoxicity was then evaluated. In Table 3 cytotoxic concentration 50 (CC50) values for each of the synthesized compounds are shown. […] When comparing the different ZBG the series 5 is the least cytotoxic for CFs, while series 8 was the most cytotoxic.
(§2) Sprague Dawley rats were obtained from the Animal Breeding Facility of the School of Chemical and Pharmaceutical Sciences at the University of Chile. All studies followed the Guide for the Care and Use of Laboratory Animals published by the US National Institutes of Health (NIH Publication 8th, 2011), and experimental protocols were approved by the University of Chile Institutional Ethics Review Committee. CF were isolated from of 2 or 3–day–old Sprague-Dawley rats and cultured as described previously. Briefly, the neonatal rats were decapitated and their hearts were extracted under aseptic environment. Atria were removed and ventricles were cut into small pieces (~1–2 mm) for posterior colagenase II digestion. The digestion yield was separated by 10 min centrifugation at 89×g. The pellet was resuspended in 10 mL of Dulbecco’s Modified Eagle’s Medium/Nutrient F-12 (DMEM-F12) supplemented with 10% FBS and antibiotics (100 μg/mL streptomycin and 100 units/mL penicillin) and cultured in a humid atmosphere of 5% CO2 and 95% O2 at 37°C until confluence (5 days). The purity of the CFs population was assessed through the expression of several markers. CFs had positive staining against vimentin (Santa Cruz Biotechnology), while being negative against sarcomeric actin and desmin (Sigma-Aldrich). Experiments were performed on cells at passage 1. Cells were cultured in 35-mm well plates and serum starved for 24 h prior to stimulation.
(§3) To evaluate cytotoxicity, CFs were seeded in 12 microwell plates at a ratio of 2 × 10^4 cell/cm^2, cultured in DMEM–F12 medium + 10% FBS, which was subsequently replaced by DMEM–F12. After 24 h of serum starvation derivatives were applied at proper times and concentrations in accordance to experimental procedures. Cell viability assays were carried out using Alamar Blue®, a nontoxic, cell permeable non fluorescent compound that is blue in color. Viable cells reduce resazurin to resorufin, which produces very bright red fluorescence which is used as a quantitative cell viability measure. 10 μL of 0.2 mg/mL Alamar Blue® was added into each well followed by incubation for 24 h. The fluorescence of Alamar Blue® was read using microplate reader at 570 excitation and emission to 595 nm. Cell survival was expressed as percentage over the untreated cells. To evaluate CFs proliferation assay, cells were seeded as mentioned before, and after serum starvation, they were stimulated by 10% fetal bovine serum (FBS), in presence/absence of CTz derivatives for […], at concentrations according to experiment. Cell proliferation was quantified by Alamar Blue®, according to protocol mentioned before. Cell proliferation was expressed as percentage over the control FBS treated cells.

[4] = tested on: neonatal rat cardiac fibroblasts (CFs); assay: as above; format: cell-based; settings: CFs treated for 48 h
Protocol: as §1, §2, §3

CFs = tested on: CFs; design: method as in PMID 24631770, PMID 24374140; settings: cited from earlier work
HDACs = settings: read-out: IC50 HDAC inhibition, cited from earlier work

T1 sequence (Q13547 whole entry): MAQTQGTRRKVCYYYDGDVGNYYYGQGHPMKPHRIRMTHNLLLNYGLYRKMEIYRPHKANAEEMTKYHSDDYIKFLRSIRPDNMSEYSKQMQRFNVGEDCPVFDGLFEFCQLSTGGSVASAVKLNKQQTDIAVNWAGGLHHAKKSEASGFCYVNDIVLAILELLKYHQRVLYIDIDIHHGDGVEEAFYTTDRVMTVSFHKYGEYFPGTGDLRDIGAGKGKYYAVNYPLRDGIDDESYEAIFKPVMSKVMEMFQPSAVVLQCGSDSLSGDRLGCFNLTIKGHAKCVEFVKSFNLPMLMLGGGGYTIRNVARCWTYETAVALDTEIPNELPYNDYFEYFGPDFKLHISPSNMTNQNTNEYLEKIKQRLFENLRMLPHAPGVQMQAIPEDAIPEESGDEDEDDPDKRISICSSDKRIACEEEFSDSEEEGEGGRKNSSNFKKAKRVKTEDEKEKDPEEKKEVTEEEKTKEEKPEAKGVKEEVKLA

Row | IC50 (HDAC1 human recombinant) | IC50 [1] | IC50 (HDAC6 human recombinant) | Compound | inhibition at 1 µM [2] | inhibition at 5 µM [2] | inhibition at 10 µM [2] | CC50 at 48 h [3] | also measured
1 | 0.0397 ± 0.0013 µM | 0.05 ± 0.0017 µM | 0.0841 ± 0.0029 µM | COc1ccc2oc(=O)c(-c3csc(NC(=O)CCCCC4CCSS4)n3)cc2c1 (stereo not drawn) [Compound 5c, 5-[1,2]-Dithiolan-3-yl-N-[4-(6-methoxy-2-oxo-2H-chromen-3-yl)-thiazol-2-yl]-pentanamide] | 67 ± 8.3% | 83.2 ± 6.8% | 91.2 ± 3.2% | 171 ± 6.1 µM | melting point: 83 to 84 °C
2 | 0.0454 ± 0.0026 µM | 0.0571 ± 0.0045 µM | 0.0802 ± 0.0037 µM | O=C(CCCCC(=O)Nc1nc(-c2cc3cc(Br)ccc3oc2=O)cs1)NO [Compound 8b, 5-[4-(6-Bromo-2-oxo-2H-chromen-3-yl)-thiazol-2-yl-carbamoyl]-N-hydroxypentanamide] | 72.7 ± 3.9% | 94.4 ± 7% | 104 ± 2.8% | 72.4 µM | CC50 [4]: 72.5 ± 11.6 µM
3 | 0.0465 ± 0.0022 µM | 0.0415 ± 0.0027 µM | 0.0626 ± 0.0023 µM | COc1ccc2oc(=O)c(-c3csc(NC(=O)CCCCC(=O)NO)n3)cc2c1 [Compound 8c, 5-[4-(6-Methoxy-2-oxo-2H-chromen-3-yl)-thiazol-2-yl-carbamoyl]-N-hydroxypentanamide] | 69.7 ± 9.1% | 81.8 ± 5.5% | 97.7 ± 4.7% | 86.5 ± 5.9 µM | melting point: 125 to 127 °C (dec.)
4 | – | – | – | CCC(=O)CCCCC[C@@H]1NC(=O)[C@H]2CCCCN2C(=O)[C@H]([C@@H](C)CC)NC(=O)[C@H](Cc2cn(OC)c3ccccc23)NC1=O [apicidin] | – | – | – | – | concentration shown to inhibit the proliferation of CFs (CFs): 3 µM
5 | – | – | – | O=C(O)/C=C/c1ccc(O)c(O)c1 [caffeic acid] | – | – | – | – | IC50 (HDACs; catecholic derivatives): 2540 µM
6 | – | – | – | O=C(/C=C/c1ccc(O)c(O)c1)O[C@@H]1C[C@](O)(C(=O)O)C[C@@H](O)[C@H]1O [chlorogenic acid] | – | – | – | – | IC50 (HDACs; catecholic derivatives): 375 µM
7 | – | – | – | Nc1ccccc1NC(=O)c1ccc(CNc2nccc(-c3cccnc3)n2)cc1 [mocetinostat] | – | – | – | – | concentration shown to inhibit the proliferation of CFs (CFs): 1 µM
8 | – | – | – | O=C(O)CCCc1ccccc1 [phenylbutyric acid] | – | – | – | – | IC50 (HDACs; short chain fatty acids): 620 µM
9 | – | – | – | CCCC(CCC)C(=O)O [valproic acid] | – | – | – | – | IC50 (HDACs; short chain fatty acids): 140 µM

From PMC6412891, “Synthesis and Biological Evaluation of Novel Thiazolyl-Coumarin Derivatives as Potent Histone Deacetylase Inhibitors with Antifibrotic Activity” (Molecules, 2019)
